# Columns and labels:
# [1] = molecular target: T1, Somatostatin receptor type 2 (Homo sapiens, UniProt P30874); assay: Agonist activity at human SST2 expressed in CHO-K1 cells assessed as reduction in NKH477-induced intracellular cAMP accumulation; format: functional, cell-based
# [2] = molecular target: Somatostatin receptor type 1 (Homo sapiens, UniProt P30872); assay: Agonist activity at SST1 (unknown origin)
# [3] = molecular target: Somatostatin receptor type 3 (Homo sapiens, UniProt P32745); assay: Agonist activity at SST3 (unknown origin)
# [4] = molecular target: Cytochrome P450 2D6 (Homo sapiens, UniProt P10635); assay: Inhibition of CYP2D6 (unknown origin); format: ADME
# [5] = molecular target: Somatostatin receptor type 5 (Homo sapiens, UniProt P35346); assay: Agonist activity at SST5 (unknown origin)
# [6] = molecular target: Cytochrome P450 2C19 (Homo sapiens, UniProt P33261); assay: Inhibition of CYP2C19 (unknown origin); format: ADME
# [7] = molecular target: Cytochrome P450 2C9 (Homo sapiens, UniProt P11712); assay: Inhibition of CYP2C9 (unknown origin); format: ADME
# [8] = molecular target: T2, Cytochrome P450 3A4 (Homo sapiens, UniProt P08684); assay: Inhibition of CYP3A4 (unknown origin) at 10 uM; format: ADME
# [9] = molecular target: Voltage-gated inwardly rectifying potassium channel KCNH2 (Homo sapiens, UniProt Q12809); assay: Inhibition of human ERG expressed in HEK293 cells; format: cell-based
# [10] = molecular target: Somatostatin receptor type 4 (Homo sapiens, UniProt P31391); assay: Agonist activity at SST4 (unknown origin)
# [11] = molecular target: T1, Somatostatin receptor type 2; assay: Agonist activity at SST2 (unknown origin)
# [12] = molecular target: T2, Cytochrome P450 3A4; assay: Inhibition of CYP3A4 (unknown origin); format: ADME
# [13] = Oral bioavailability in Sprague-Dawley rat at 10 mg/kg; format: ADME, organism-based; settings: in vivo
# [14] = molecular target: Somatostatin receptor type 2 (Rattus norvegicus, UniProt P30680); assay: Agonist activity at rat SST2
# Chain of Somatostatin receptor type 2 (Rattus norvegicus, UniProt P30680) (P30680 whole entry): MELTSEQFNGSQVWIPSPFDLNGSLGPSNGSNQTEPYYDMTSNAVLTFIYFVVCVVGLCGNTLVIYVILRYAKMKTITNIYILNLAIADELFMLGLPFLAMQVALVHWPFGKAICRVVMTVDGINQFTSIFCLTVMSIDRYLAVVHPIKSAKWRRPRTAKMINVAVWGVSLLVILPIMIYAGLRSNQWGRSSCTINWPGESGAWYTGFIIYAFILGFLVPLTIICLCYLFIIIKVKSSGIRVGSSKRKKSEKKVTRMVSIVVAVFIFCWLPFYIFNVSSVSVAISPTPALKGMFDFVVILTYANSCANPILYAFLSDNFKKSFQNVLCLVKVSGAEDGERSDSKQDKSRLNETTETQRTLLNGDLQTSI
# Chain of Somatostatin receptor type 1 (P30872 whole entry): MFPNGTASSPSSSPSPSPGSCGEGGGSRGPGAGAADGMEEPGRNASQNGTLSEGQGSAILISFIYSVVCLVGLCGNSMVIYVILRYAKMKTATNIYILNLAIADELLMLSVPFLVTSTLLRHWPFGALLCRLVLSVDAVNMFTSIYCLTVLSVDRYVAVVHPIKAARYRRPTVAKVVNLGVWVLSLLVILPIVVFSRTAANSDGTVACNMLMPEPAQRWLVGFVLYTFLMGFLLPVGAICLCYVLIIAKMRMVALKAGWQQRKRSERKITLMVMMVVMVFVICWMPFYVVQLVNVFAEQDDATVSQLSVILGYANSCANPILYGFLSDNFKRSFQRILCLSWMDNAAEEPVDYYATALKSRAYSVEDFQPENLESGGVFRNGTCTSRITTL
# Chain of Voltage-gated inwardly rectifying potassium channel KCNH2 (Q12809 whole entry): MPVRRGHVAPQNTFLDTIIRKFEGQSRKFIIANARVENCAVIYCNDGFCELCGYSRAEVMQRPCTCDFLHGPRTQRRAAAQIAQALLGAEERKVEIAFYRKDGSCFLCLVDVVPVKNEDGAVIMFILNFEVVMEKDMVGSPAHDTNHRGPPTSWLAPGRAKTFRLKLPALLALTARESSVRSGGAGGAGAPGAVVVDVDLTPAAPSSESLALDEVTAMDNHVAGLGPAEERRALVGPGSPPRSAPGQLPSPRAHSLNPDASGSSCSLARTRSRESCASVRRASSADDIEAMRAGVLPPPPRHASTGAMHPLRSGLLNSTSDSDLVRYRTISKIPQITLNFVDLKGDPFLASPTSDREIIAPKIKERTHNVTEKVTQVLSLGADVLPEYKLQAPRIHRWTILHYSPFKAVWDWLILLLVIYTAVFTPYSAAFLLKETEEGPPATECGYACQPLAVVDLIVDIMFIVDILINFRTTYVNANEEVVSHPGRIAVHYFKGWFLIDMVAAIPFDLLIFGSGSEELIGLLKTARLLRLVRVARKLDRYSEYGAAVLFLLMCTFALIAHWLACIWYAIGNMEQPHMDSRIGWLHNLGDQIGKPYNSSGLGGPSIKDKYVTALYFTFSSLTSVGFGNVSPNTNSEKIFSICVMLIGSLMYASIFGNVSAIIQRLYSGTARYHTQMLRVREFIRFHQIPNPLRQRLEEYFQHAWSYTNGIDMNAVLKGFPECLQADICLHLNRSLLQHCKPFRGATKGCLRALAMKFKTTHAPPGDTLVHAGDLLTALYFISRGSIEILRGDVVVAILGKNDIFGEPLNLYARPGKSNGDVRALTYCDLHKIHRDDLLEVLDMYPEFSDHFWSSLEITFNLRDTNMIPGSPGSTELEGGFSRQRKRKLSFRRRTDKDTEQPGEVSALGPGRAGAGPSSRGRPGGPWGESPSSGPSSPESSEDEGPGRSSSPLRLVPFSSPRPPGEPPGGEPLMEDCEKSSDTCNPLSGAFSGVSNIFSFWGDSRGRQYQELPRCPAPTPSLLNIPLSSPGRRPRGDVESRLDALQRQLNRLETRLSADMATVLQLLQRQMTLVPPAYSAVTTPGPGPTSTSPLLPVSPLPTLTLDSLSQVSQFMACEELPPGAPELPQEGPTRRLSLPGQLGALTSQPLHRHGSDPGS
# Chain of Somatostatin receptor type 3 (P32745 whole entry): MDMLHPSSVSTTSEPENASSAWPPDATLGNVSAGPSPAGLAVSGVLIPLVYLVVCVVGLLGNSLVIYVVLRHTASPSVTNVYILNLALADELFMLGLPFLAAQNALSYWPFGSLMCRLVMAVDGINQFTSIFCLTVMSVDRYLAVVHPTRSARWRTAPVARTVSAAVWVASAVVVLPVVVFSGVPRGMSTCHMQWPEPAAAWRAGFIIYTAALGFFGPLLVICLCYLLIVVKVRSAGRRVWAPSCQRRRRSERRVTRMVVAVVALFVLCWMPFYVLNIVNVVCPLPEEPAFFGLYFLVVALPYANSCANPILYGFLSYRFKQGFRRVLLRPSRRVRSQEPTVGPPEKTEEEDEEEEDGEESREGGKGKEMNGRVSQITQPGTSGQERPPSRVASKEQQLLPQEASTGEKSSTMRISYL
# T1 sequence (P30874 whole entry): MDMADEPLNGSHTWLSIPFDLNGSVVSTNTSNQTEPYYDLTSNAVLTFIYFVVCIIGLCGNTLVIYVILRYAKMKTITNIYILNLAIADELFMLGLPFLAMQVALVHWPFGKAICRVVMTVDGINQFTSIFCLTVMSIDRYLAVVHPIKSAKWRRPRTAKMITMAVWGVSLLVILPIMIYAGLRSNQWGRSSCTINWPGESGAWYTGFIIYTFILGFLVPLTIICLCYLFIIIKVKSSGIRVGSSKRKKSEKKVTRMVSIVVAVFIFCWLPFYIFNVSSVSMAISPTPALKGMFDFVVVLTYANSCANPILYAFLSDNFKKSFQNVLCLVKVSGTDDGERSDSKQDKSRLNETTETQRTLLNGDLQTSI
# Chain of Somatostatin receptor type 5 (P35346 whole entry): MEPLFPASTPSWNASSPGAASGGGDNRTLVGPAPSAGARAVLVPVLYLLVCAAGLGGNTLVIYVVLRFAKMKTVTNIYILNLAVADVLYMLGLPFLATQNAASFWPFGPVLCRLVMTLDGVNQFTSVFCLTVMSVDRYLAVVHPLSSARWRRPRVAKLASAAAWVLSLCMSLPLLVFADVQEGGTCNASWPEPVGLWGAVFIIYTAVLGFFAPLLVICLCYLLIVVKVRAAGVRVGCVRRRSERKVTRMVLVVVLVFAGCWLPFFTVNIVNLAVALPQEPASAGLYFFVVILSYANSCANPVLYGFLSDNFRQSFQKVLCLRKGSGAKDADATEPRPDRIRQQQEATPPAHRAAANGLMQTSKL
# Chain of Somatostatin receptor type 4 (P31391 whole entry): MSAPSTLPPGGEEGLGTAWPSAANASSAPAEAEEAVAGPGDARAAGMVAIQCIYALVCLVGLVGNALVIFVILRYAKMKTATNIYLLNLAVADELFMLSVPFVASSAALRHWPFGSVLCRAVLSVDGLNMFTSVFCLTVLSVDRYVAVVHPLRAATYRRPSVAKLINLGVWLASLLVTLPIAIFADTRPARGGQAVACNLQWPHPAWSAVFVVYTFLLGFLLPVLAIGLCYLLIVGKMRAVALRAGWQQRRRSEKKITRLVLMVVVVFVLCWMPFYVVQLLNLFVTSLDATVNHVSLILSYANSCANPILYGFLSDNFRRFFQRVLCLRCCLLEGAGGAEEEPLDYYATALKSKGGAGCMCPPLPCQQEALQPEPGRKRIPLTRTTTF
# T2 sequence (P08684 whole entry): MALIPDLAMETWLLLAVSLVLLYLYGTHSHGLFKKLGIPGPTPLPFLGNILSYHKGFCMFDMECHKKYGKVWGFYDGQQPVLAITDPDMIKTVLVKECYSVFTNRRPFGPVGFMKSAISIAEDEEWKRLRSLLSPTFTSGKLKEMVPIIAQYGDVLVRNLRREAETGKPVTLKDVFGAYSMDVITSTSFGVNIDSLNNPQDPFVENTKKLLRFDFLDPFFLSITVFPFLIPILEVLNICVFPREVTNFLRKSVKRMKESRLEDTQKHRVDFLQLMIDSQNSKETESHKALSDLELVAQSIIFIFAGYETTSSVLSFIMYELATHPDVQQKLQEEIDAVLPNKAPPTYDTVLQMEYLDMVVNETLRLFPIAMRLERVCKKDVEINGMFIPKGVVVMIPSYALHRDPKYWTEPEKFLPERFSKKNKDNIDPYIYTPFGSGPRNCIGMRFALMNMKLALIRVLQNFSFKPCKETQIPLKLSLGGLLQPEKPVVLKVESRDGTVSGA
# Chain of Cytochrome P450 2C9 (P11712 whole entry): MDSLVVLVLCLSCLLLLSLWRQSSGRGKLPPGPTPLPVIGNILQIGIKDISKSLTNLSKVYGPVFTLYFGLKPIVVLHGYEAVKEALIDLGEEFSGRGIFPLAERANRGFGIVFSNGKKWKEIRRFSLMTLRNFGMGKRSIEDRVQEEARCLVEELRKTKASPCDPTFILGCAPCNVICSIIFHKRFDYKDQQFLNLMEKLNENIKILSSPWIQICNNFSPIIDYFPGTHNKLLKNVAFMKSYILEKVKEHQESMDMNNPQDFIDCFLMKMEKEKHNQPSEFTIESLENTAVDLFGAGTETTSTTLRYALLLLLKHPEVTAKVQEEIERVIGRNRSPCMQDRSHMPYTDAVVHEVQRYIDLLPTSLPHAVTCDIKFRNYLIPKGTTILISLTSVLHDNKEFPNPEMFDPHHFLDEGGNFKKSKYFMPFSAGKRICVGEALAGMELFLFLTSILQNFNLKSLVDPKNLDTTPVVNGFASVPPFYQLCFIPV
# Chain of Cytochrome P450 2C19 (P33261 whole entry): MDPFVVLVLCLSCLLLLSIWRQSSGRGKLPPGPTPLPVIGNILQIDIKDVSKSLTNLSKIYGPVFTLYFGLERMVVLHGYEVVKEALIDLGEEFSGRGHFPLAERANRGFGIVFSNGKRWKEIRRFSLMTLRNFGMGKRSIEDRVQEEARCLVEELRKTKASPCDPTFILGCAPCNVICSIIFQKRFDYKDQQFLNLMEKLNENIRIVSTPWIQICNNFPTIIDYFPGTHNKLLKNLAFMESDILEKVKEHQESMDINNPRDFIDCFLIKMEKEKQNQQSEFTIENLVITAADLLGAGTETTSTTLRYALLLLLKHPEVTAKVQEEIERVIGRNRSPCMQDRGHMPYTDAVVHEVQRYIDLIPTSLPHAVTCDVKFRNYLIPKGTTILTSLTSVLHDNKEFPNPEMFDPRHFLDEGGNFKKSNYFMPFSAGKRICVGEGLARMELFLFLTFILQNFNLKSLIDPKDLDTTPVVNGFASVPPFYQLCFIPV
smiles,measurement,setting,value
Cc1cc(Cl)cc(N2C=Nc3cc(C)c(-c4cccc(-c5nnn[nH]5)c4)cc3C2C(=O)N(C)C[C@@H]2CCCN2)c1 (stereo not given in full),EC50,"[1]; cho-k1, read-out: EC50",> 1000 nM
same,EC50,[1]; read-out: pEC50 (converted),> 1000 nM
Cc1cc(Cl)cc(N2C=Nc3cc(C)c(-c4cc(F)cc(F)c4)cc3C2C(=O)N(C)C[C@@H]2CCCN2)c1 (stereo not given in full),EC50,[1]; read-out: EC50,3.7 nM
Cc1cc(Cl)cc(N2C=Nc3cc(C)c(-c4cccc(F)c4O)cc3C2C(=O)N(C)C[C@@H]2CCCN2)c1 (stereo not given in full),EC50,[2],> 1000 nM
same,EC50,[3],158 nM
same,inhibition (INH),[4],Not Active
same,EC50,[5],> 1000 nM
same,inhibition (INH),[6],Not Active
same,inhibition (INH),[7],Not Active
same,inhibition (INH),[8],Active
same,IC50,[9]; read-out: pIC50 (converted),5010 nM
Cc1cc(F)cc(N2C=Nc3cc(C)c(-c4cccc(O)c4)cc3C2C(=O)N(C)C[C@@H]2CCCN2)c1 (stereo not given in full),EC50,[1]; read-out: EC50,0.98 nM
Cc1cc(Cl)cc(N2C=Nc3cc(C)c(-c4ccc5[nH]c(=O)[nH]c5c4)cc3C2C(=O)N(C)C[C@@H]2CCCN2)c1 (stereo not given in full),EC50,[1]; read-out: EC50,4.6 nM
CC[C@H](N)CN(C)C(=O)C1c2cc(-c3cccc(O)c3)c(C)cc2N=CN1c1cc(C)cc(C)c1 (stereo not given in full),EC50,[1]; read-out: EC50,4.2 nM
Cc1cc(Cl)cc(N2C=Nc3cc(C)c(-c4cc(O)cc(F)c4)cc3C2C(=O)N(C)C[C@@H]2CCCN2)c1 (stereo not given in full),EC50,[1]; read-out: EC50,0.12 nM
same,EC50,[10],251 nM
same,EC50,[2],> 1000 nM
same,EC50,[3],7.94 nM
same,EC50,[5],> 1000 nM
same,EC50,[11],0.126 nM
same,IC50,[9]; read-out: IC50,< 1000 nM
same,IC50,[9]; read-out: pIC50 (converted),631 nM
COc1cc(F)cc(-c2cc3c(cc2C)N=CN(c2cc(C)cc(Cl)c2)C3C(=O)N(C)C[C@@H]2CCCN2)c1 (stereo not given in full),EC50,[1]; read-out: EC50,6.1 nM
Cc1cc(Cl)cc(N2C=Nc3cc(C)c(-c4cc(O)cc(C#N)c4)cc3C2C(=O)N(C)C[C@@H]2CCCN2)c1 (stereo not given in full),EC50,[1]; read-out: EC50,0.36 nM
Cc1cc(C)cc(N2C=Nc3cc(Cl)c(-c4cccc(O)c4)cc3C2C(=O)NC[C@H](C)N)c1 (stereo not given in full),EC50,"[1]; cho-k1, read-out: EC50",> 1000 nM
same,EC50,[1]; read-out: pEC50 (converted),> 1000 nM
Cc1cc(Cl)cc(N2C=Nc3cc(C)c(-c4ccccc4)cc3C2C(=O)N(C)C[C@@H]2CCCN2)c1 (stereo not given in full),EC50,[1]; read-out: EC50,56 nM
Cc1cc(Cl)cc(N2C=Nc3cc(C)c(-c4cccc(C(F)(F)F)c4)cc3C2C(=O)N(C)C[C@@H]2CCCN2)c1 (stereo not given in full),EC50,[1]; read-out: EC50,53 nM
Cc1cc(Cl)cc(N2C=Nc3cc(C)c(-c4cccc(Cl)c4)cc3C2C(=O)N(C)C[C@@H]2CCCN2)c1 (stereo not given in full),EC50,[1]; read-out: EC50,39 nM
Cc1cc(Cl)cc(N2C=Nc3cc(C)c(-c4cncc(C#N)c4)cc3C2C(=O)N(C)C[C@@H]2CCCN2)c1 (stereo not given in full),EC50,[1]; read-out: EC50,11 nM
Cc1cc(Cl)cc(N2C=Nc3cc(C)c(-c4cccc(C#N)c4)cc3C2C(=O)N(C)C[C@@H]2CCCN2)c1 (stereo not given in full),EC50,[1]; read-out: EC50,5.4 nM
Cc1cc(Cl)cc(N2C=Nc3cc(C)c(-c4cc(F)cc(C(N)=O)c4)cc3C2C(=O)N(C)C[C@@H]2CCCN2)c1 (stereo not given in full),EC50,[1]; read-out: EC50,0.15 nM
same,EC50,[10],> 1000 nM
same,EC50,[2],> 1000 nM
same,EC50,[3],7.94 nM
same,IC50,[12],1000 nM
same,EC50,[5],> 1000 nM
same,EC50,[11],0.158 nM
same,IC50,[9]; read-out: pIC50 (converted),2510 nM
Cc1cc(C)cc(N2C=Nc3cc(C)c(-c4cccc(O)c4)cc3C2C(=O)N(C)C[C@@H]2CCCN2)c1 (stereo not given in full),EC50,[1]; read-out: EC50,1.3 nM
Cc1cc(Cl)cc(N2C=Nc3cc(C)c(-c4cc(F)cc(C#N)c4)cc3C2C(=O)N(C)C[C@@H]2CCCN2)c1 (stereo not given in full),EC50,[1]; read-out: EC50,1.3 nM
same,EC50,[10],631 nM
same,EC50,[2],> 1000 nM
same,EC50,[3],3.98 nM
same,EC50,[11],1.26 nM
Cc1cc(Cl)cc(N2C=Nc3cc(C)c(-c4cc(F)ccc4O)cc3C2C(=O)N(C)C[C@@H]2CCCN2)c1 (stereo not given in full),EC50,[1]; read-out: EC50,2.1 nM
Cc1cc(Cl)cc(N2C=Nc3cc(C)c(-c4cccc(F)c4O)cc3C2C(=O)N(C)CC2CCCN2)c1 (stereo not given),bioavailability,[13],< 5%
same,EC50,[14],0.54 nM
Cc1cc(Cl)cc(N2C=Nc3cc(C)c(-c4cc(O)ccc4F)cc3C2C(=O)N(C)C[C@@H]2CCCN2)c1 (stereo not given in full),EC50,[1]; read-out: EC50,0.2 nM
same,EC50,[2],> 1000 nM
same,EC50,[11],0.2 nM
same,IC50,[9]; read-out: IC50,< 1000 nM
same,IC50,[9]; read-out: pIC50 (converted),501 nM
Cc1cc(Cl)cc(N2C=Nc3cc(C)c(-c4cccc(O)c4)cc3C2C(=O)N(C)C[C@@H]2CCCN2)c1 (stereo not given in full),EC50,[1]; read-out: EC50,0.33 nM
CC[C@H](N)CN(C)C(=O)C1c2cc(-c3cccc(O)c3)c(Cl)cc2N=CN1c1cc(C)cc(C)c1 (stereo not given in full),EC50,[1]; read-out: EC50,11 nM
Cc1cc(Cl)cc(N2C=Nc3cc(C)c(-c4cnn(C)c4)cc3C2C(=O)N(C)C[C@@H]2CCCN2)c1 (stereo not given in full),EC50,[1]; read-out: EC50,170 nM
Cc1cc(Cl)cc(N2C=Nc3cc(C)c(-c4cncc(O)c4)cc3C2C(=O)N(C)C[C@@H]2CCCN2)c1 (stereo not given in full),EC50,[1]; read-out: EC50,8.1 nM
Cc1cc(C)cc(N2C=Nc3ccc(-c4cccc(O)c4)cc3C2C(=O)N(C)C[C@H](C)N)c1 (stereo not given in full),EC50,"[1]; cho-k1, read-out: EC50",> 1000 nM
same,EC50,[1]; read-out: pEC50 (converted),> 1000 nM
Cc1cc(Cl)cc(N2C=Nc3cc(C)c(-c4cccc(NS(C)(=O)=O)c4)cc3C2C(=O)N(C)C[C@@H]2CCCN2)c1 (stereo not given in full),EC50,[1]; read-out: EC50,130 nM

# Source: ChEMBL document CHEMBL4665730, “Discovery of nonpeptide 3,4-dihydroquinazoline-4-carboxamides as potent and selective sst2 agonists” (Bioorg Med Chem Lett, 2020)
